Laboratory results as given in patent US20200360381A1, “COMPOUNDS FOR TREATING DENGUE VIRUS INFECTION AND OTHER VIRAL INFECTIONS” (priority 2017, published 2020).
Where “and” joins values, the source holds several entries; their conditions need not be identical. Identical values can stand only once. Like-named read-outs stand apart in the source and are kept apart here.

Columns and labels:
DENV2 = experiment: Antiviral activity (viral infectivity) assay, single-cycle viral yield; assay type: cell-based, Dengue virus 2; details: for IC90: Dengue virus
DENV2 sE2 [1] = target: T1, DENV2 sE2 (Dengue virus type 2, UniProt P14340); experiment: biochemical; assay type: binding, Dengue virus 2
[2] = Mouse microsomal stability; details: mouse microsomes
[3] = Cytotoxicity assay (CellTiter-Glo); details: hamster
Procedure: (§1) BHK21 cells (MEM with 2% FBS) were incubated with varying concentrations of inhibitor in a 96-well white plate for 24 hours at 37° C. and 5% CO2. CellTiter-Glo (Promega) solution was used to measure viability following the manufacturer's instructions. Luminescence was measured using a Biotek Synergy plate reader. […] The maximum concentration tested was 100 μM.

DENV2 sE2 [4] = target: T1, DENV2 sE2; experiment: biochemical; assay type: binding, Dengue virus 2; details: for IC50: IC50 (AlphaScreen)
VSV-eGFP = experiment: microbe, parasite or virus in culture; assay type: cell-based, vesicular stomatitis virus; details: for inhibition at 5 µM / inhibition at 10 µM: Vesicular stomatitis virus, 6 h; for inhibition at 5 µM: read-out: VSV 5 μM; for inhibition at 10 µM: read-out: VSV 10 μM
[5] = Dynamic light scattering particle size; assay type: physicochemical; details: DLS, 40 μM compound; for Particle size (with Tween 20): with detergent; for Particle size (no Tween): without detergent
DENV1, 2, 3, 4; ZIKV = experiment: Plaque reduction assay (PRNT); assay type: cell-based; details: Zika virus, DENV1, read-out: EC50 (PRNT)
Procedure: DENV1, 2, 3, 4 were tested on BHK-21 cells, and ZIKV was tested on Vero cells. Virus inocula were diluted in EBSS to 2500 pfu/ml as the final concentration, and were pre-incubated with different concentrations of small molecule inhibitors (2% DMSO vol/vol final concentration) for 45 min at 37° C., 5% CO2. The mixture (200 μl, 500 pfu of virus) was then added to cells for 1 hour (37° C., 5% CO2) to allow infection, after which the inoculum was removed, and the cells were washed with 1×PBS to remove unbound virus and compound. Cells were overlaid with carboxylmethylcellulose and incubated at 37° C., 5% CO2 to allow the formation of plaques (4 days for DENV1, 2, 3, 4 and 2-3 days for ZIKV). The cells were fixed and plaques visualized by staining of the cell monolayers with crystal violet Empirical analysis was performed to determine the PRNT50 (EC50 (PRNT)) value, defined as the inhibitor concentration needed to reduce plaque formation by 50%.

AmpC β-lactamase = AmpC β-lactamase (Escherichia coli, UniProt P00811); experiment: biochemical
AmpC β-lactamase, sequence (P00811 20-377): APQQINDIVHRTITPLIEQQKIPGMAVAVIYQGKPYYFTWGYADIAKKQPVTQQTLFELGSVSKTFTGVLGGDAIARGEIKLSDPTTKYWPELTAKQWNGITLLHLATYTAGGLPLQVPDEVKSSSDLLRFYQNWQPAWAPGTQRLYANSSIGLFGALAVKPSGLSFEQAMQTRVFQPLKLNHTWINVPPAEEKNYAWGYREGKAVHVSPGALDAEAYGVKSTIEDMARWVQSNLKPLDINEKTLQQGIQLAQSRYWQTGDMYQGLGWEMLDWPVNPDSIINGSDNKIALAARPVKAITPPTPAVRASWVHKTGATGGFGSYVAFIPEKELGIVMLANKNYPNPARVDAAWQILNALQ

in vitro = details: hamster
Procedure: as §1

[6] = DENV2, concentration that reduces single-cycle viral yield by 10-fold, read-out: IC90 (DENV2 infectivity)
[7] = T1/2 (mouse microsome), mouse microsomal stability
[8] = concentration that inhibits 50% luminescence signal in the AlphaScreen competition assay, Table 1
[9] = DENV2, read-out: IC90 versus DENV2
[10] = IC50 (AmpC, Triton), with detergent (0.01% Triton X-100)

Row | Structure (SMILES) | IC90 (DENV2; [6]) | Kd (DENV2 sE2 [1]) | half-life [2, 7] | CC50 at 24 h [3] | IC50 (DENV2 sE2 [4]; [8]) | inhibition at 5 µM (VSV-eGFP) | inhibition at 10 µM (VSV-eGFP) | Particle size (with Tween 20) [5] | Particle size (no Tween) [5] | further results
1 | COc1ccc(Nc2cc(C)c3cc(NC(=O)c4ccc(N(C)C)cc4)ccc3n2)cc1 [Compound C066-4182] | 17 ± 4.5 µM | 2.2 µM | 5.3 min | > 50 µM | 1.4 ± 1.1 µM | 5% | 22% | – | – | –
2 | COC(=O)c1ccc(Cl)cc1NC(=O)CSc1ncc(S(=O)(=O)c2ccc(Br)cc2)c(=O)[nH]1 [Compound C200-5340] | 7.2 ± 3.5 µM | 7.1 µM | 4.2 min | > 50 µM | 3 ± 1.1 µM | 20% | 51% | 7.5 (40 μM) nm | 966 (40 μM) nm | inhibition of VSV-eGFP in counter screen (VSV-eGFP): less potency
3 | Oc1ccc(C2NCCc3c2[nH]c2ccc(Cl)cc32)cc1O (stereo not drawn) [Compound C200-9144] | 1.2 ± 0.4 µM | 1.2 µM | 55.6 min | > 50 µM | 2.6 ± 1.3 µM | 76% | 77% | 8.3 (40 μM) nm | 1443 (40 μM) nm | IC90 (DENV2; [9]): 3 µM; inhibition of VSV-eGFP in counter screen (VSV-eGFP): less potency
4 | Cc1nc2c(C(=O)NCc3ccc4c(c3)OCO4)cnn2c(O)c1Cc1ccccc1F [Compound C218-0288] | – | – | – | – | – | – | – | – | – | IC50 (DENV2 sE2 [4]; Table 3): 1.9 µM
5 | CCOc1ccc(CCNC(=O)c2cnn3c(O)cc(C4CCN(C(=O)OC(C)(C)C)CC4)nc23)cc1 [Compound C429-0385] | – | – | – | > 100 µM | – | – | – | – | – | IC90 (DENV2; DENV2, read-out: IC90 (DENV2 infectivity)): ~3 µM; EC50 (DENV1, 2, 3, 4; ZIKV): 0.6 µM; IC50 (DENV2 sE2 [4]; Table 3): 7.6 µM and 5.3 µM
6 | CCCc1nn2c(=O)cc(CSc3nc(-c4ccc(C)cc4)nc4cc(=O)[nH]n34)nc2s1 [Compound G199-0398] | 8.8 ± 0.2 µM | – | 70.6 min | 68 µM | 7 ± 3 µM | 33% | 59% | 7.2 (40 μM) nm | 268 (40 μM) nm | half-life ([2]; stability half-life (text, printed Ti)): ~70 min; inhibition of VSV-eGFP in counter screen (VSV-eGFP): strong inhibition efficiency
7 | Cc1ccc(CCNC(=O)c2cnn3c(O)c(Cc4cc(C)ccc4C)c(C)nc23)cc1 [Compound K786-9739] | 3.1 ± 0.1 µM | 1.3 µM | 14.9 min | 81 µM | 3 ± 1.7 µM | 35% | 63% | 7.1 (40 μM) nm | 628 (40 μM) nm | IC90 (DENV2; [9]): 3 µM
8 | COc1cc(C(=O)NS(=O)(=O)c2ccccc2C)ccc1Cc1cn(C)c2ccc(NC(=O)OC3CCCC3)cc12 [Compound S1633] | 7 ± 2.8 µM | 5.2 µM | 37.7 min | – | 3.1 ± 1 µM | 12% | 40% | 9.2 (40 μM) nm | 823 (40 μM) nm | IC50 (AmpC β-lactamase; IC50 (AmpC), without detergent): 36.6 µM; IC50 (AmpC β-lactamase; [10]): > 100 µM; CC50 at 24 h (in vitro): 50 µM
9 | Cc1cc(C(C#N)c2ccc(Cl)cc2)c(Cl)cc1NC(=O)c1cc(I)cc(I)c1O (stereo not drawn) [Compound S4105] | 0.8 ± 0.3 µM | 0.9 µM | > 120 min | – | 0.6 ± 0.2 µM | – | – | 13.1 (40 μM) nm | 82 (40 μM) nm | IC90 (DENV2; [9]): 3 µM; IC50 (AmpC β-lactamase; IC50 (AmpC), without detergent): 19.5 µM; IC50 (AmpC β-lactamase; [10]): > 100 µM; CC50 at 24 h (in vitro): 50 µM; VSV 5 μM (VSV-eGFP): 60%; VSV 10 μM (VSV-eGFP): 64%
10 | CN(CC(=O)N(Cc1ccc(C2CCCCC2)cc1)c1ccc(C(=O)O)cc1)S(=O)(=O)c1c(F)c(F)c(F)c(F)c1F [Compound S7337] | 2.7 ± 1 µM | 1.3 µM | 3.2 min | 12.7 µM | 4.1 ± 1.8 µM | – | – | 8.2 (40 μM) nm | 144 (40 μM) nm | IC90 (DENV2; [9]): 3 µM; IC50 (AmpC β-lactamase; IC50 (AmpC), without detergent): > 100 µM; IC50 (AmpC β-lactamase; [10]): > 100 µM; inhibition of VSV-eGFP in counter screen (VSV-eGFP): less potency
11 | NC(=O)c1cccc(-c2cc(Nc3ccc(OC(F)(F)F)cc3)ncn2)c1 [GNF2, reference compound] | – | – | – | – | – | – | – | – | – | competition of AlphaScreen signal (DENV2 sE2 [4]; GNF2-biotin on donor beads, His6-tagged DENV2 sE2 on acceptor beads): competed away in a dose-dependent fashion
12 | Cc1nc2c(C(=O)NC3CCN(C)CC3)cnn2c(O)c1Cc1ccc(F)cc1 [JBJ-16-103] | – | – | – | – | – | – | – | – | – | IC50 (AlphaScreen) (DENV2 sE2 [4]; Table 2): No competition
13 | Cc1nc2c(C(=O)NCC3CCCN(C)C3)cnn2c(O)c1Cc1ccc(F)cc1 (stereo not drawn) [JBJ-16-104] | – | – | – | – | – | – | – | – | – | IC50 (AlphaScreen) (DENV2 sE2 [4]; Table 2): No competition
14 | Cc1nc2c(C(=O)NCc3cccnc3)cnn2c(O)c1Cc1ccc(F)cc1 [JBJ-16-105] | – | – | – | – | – | – | – | – | – | (Anti-DENV2)% at 3 μM (DENV2; 3 μM): 20%; (Anti-DENV2)% at 10 μM (DENV2; 10 μM): 86%; IC50 (DENV2 sE2 [4]; Table 2): > 10 µM
